Test results taken from patent publication US20020137929A1, “1 - (3-heterocyclylphenyl) isothiourea, -isourea, -guanidine and -amidine herbicidal agents” (Intellectual Property Department, BASF Aktiengesellschaft, priority 1998, published 2002).

How the values were obtained:
[1] = system: ABUTH (Velvetleaf); test: Postemergence herbicidal evaluation; type: in vivo, Abutilon theophrasti; settings: postemergence
Outline: (§1)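 Seedlings grown about two weeks were sprayed at 40 psi with compound dispersed in 50/50 acetone/water plus 0.5% TWEEN 20, at about 0.0156 to 0.500 kg/ha. Plants were kept in the greenhouse and scored 4–5 weeks later on a 0–9 visual scale against untreated controls.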

[2] = system: IPOHE (Morningglory, Ivyleaf); test: Postemergence herbicidal evaluation; type: in vivo, Ipomoea hederacea; settings: postemergence
Outline: as §1

[3] = system: SETVI (Foxtail, Green); test: Postemergence herbicidal evaluation; type: in vivo, Setaria viridis; settings: postemergence
Outline: as §1

[4] = system: GLXMAW (Soybean, Williams); test: Postemergence herbicidal evaluation; type: in vivo, Glycine max, (L.) Merr. cv Williams; settings: postemergence
Outline: as §1

[5] = system: ZEAMX (Corn, Field); test: Postemergence herbicidal evaluation; type: in vivo, Zea mays; settings: postemergence
Outline: as §1

[6] = system: ABUTH (Velvetleaf); test: Preemergence herbicidal evaluation; type: in vivo, Abutilon theophrasti; settings: rated 4-5 weeks after treatment
Outline: (§2)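 Herbicidal effect scored visually, 0-9, at 4 to 5 weeks against a control; compound applied preemergence by aqueous acetone spray to seeded soil at about 0.0156 to 0.500 kg/ha.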

[7] = system: AMBEL (Ragweed, Common); test: Preemergence herbicidal evaluation; type: in vivo, Ambrosia artemisifolia; settings: rated 4-5 weeks after treatment
Outline: as §2

[8] = system: CASOB (Sicklepod); test: Preemergence herbicidal evaluation; type: in vivo, Cassia obtusifolia; settings: rated 4-5 weeks after treatment
Outline: as §2

[9] = system: IPOHE (Morningglory, Ivyleaf); test: Preemergence herbicidal evaluation; type: in vivo, Ipomoea hederacea; settings: rated 4-5 weeks after treatment
Outline: as §2

[10] = system: ECHCG (Barnyardgrass); test: Preemergence herbicidal evaluation; type: in vivo, Echinochloa crus-galli; settings: rated 4-5 weeks after treatment
Outline: as §2

[11] = system: ECHORC (Watergrass (Calif.)); test: Preemergence weed control under flooded paddy conditions; type: in vivo, Echinochloa oryzoides; settings: rated 3-4 weeks after treatment
Outline: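 Visual injury scored 0-9 against control three to four weeks post-treatment, greenhouse-grown. Application: acetone/water (50/50) solutions dosed directly into flood water (1.5-3 cm over silt loam, planted top 0.5 cm), roughly 0.0313 to 0.500 kg/ha active ingredient.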

[12] = system: CYPSE (Flatsedge); test: as above; type: in vivo, Cyperus serotinus; settings: rated 3-4 weeks after treatment
Outline: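 Values are visual 0-9 scores against a control for a preemergence application into paddy flood water at about 0.0313 to 0.500 kg/ha. Greenhouse duration was three to four weeks.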

[13] = system: ECHORC (Watergrass (Calif.)); test: Postemergence weed control under flooded paddy conditions; type: in vivo, Echinochloa oryzoides; settings: postemergence weeds, rated 3 to 4 weeks after treatment
Outline: (§3)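 Injury ratings (0–9 scale covering stand, vigor, malformation, size, chlorosis and overall appearance versus control) were made three to four weeks after treatment. Test material, about 0.0313 to 0.500 kg/ha a.i. in 50/50 v/v aqueous/acetone, was added to flood water 1.5 to 3 cm deep over 3 to 5 cm weeds and 1.5 to 2.5 leaf rice.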

[14] = system: CYPIR (Rice Flatsedge); test: as above; type: in vivo, Cyperus iria; settings: postemergence weeds, rated 3 to 4 weeks after treatment
Outline: as §3

C=CCOC(=O)CC1SC(=Nc2cc(-n3c(=O)cc(C(F)(F)F)n(C)c3=O)c(F)cc2Cl)N(CC=C)C1=O (centres unmarked) [Compound 65, Allyl 3-allyl-2-{(2-chloro-5-[3,6-dihydro-3-methyl-2,6-dioxo-4-(trifluoromethyl)-1(2H)-pyrimidinyl]-4-fluorophenyl}imino}-4-oxo-5-thiazolidineacetate]
8.0: GLXMAW herbicidal rating ([4]; rate 0.0315 kg/ha) | ZEAMX herbicidal rating ([5]; rate 0.0158 kg/ha) | ZEAMX herbicidal rating ([5]; rate 0.0315 kg/ha) | Herbicidal rating CYPIR ([14]; Rate 0.2500 kg/ha)
5.0: Preemergence herbicidal rating ECHCG ([10]; rate 0.2500 kg/ha) | ECHORC herbicidal effect rating ([11]; 0.0313 kg/ha) | ECHORC herbicidal effect rating ([11]; 0.0625 kg/ha) | Herbicidal rating ECHORC ([13]; Rate 0.0313 kg/ha) | Herbicidal rating ECHORC ([13]; Rate 0.0625 kg/ha)
7.0: SETVI herbicidal rating ([3]; rate 0.0158 kg/ha) | SETVI herbicidal rating ([3]; rate 0.0315 kg/ha) | Preemergence herbicidal rating IPOHE ([9]; rate 0.2500 kg/ha) | ECHORC herbicidal effect rating ([11]; 0.2500 kg/ha) | Herbicidal rating ECHORC ([13]; Rate 0.2500 kg/ha) | Herbicidal rating CYPIR ([14]; Rate 0.0625 kg/ha) | Herbicidal rating CYPIR ([14]; Rate 0.1250 kg/ha)
9.0: ABUTH herbicidal rating ([1]; rate 0.0158 kg/ha) | ABUTH herbicidal rating ([1]; rate 0.0315 kg/ha) | ABUTH herbicidal rating ([1]; rate 0.0630 kg/ha) | IPOHE herbicidal rating ([2]; rate 0.0158 kg/ha) | IPOHE herbicidal rating ([2]; rate 0.0315 kg/ha) | IPOHE herbicidal rating ([2]; rate 0.0630 kg/ha) | SETVI herbicidal rating ([3]; rate 0.0630 kg/ha) | Preemergence herbicidal rating ABUTH ([6]; rate 0.0313 kg/ha) | Preemergence herbicidal rating ABUTH ([6]; rate 0.0625 kg/ha) | Preemergence herbicidal rating ABUTH ([6]; rate 0.1250 kg/ha) | Preemergence herbicidal rating ABUTH ([6]; rate 0.2500 kg/ha) | Preemergence herbicidal rating AMBEL ([7]; rate 0.1250 kg/ha) | Preemergence herbicidal rating AMBEL ([7]; rate 0.2500 kg/ha) | Preemergence herbicidal rating IPOHE ([9]; rate 0.1250 kg/ha)
4.0: Preemergence herbicidal rating AMBEL ([7]; rate 0.0625 kg/ha)
7.5: GLXMAW herbicidal rating ([4]; rate 0.0158 kg/ha) | GLXMAW herbicidal rating ([4]; rate 0.0630 kg/ha) | ZEAMX herbicidal rating ([5]; rate 0.0630 kg/ha)
0.0: Preemergence herbicidal rating CASOB ([8]; rate 0.0156 kg/ha) | Preemergence herbicidal rating CASOB ([8]; rate 0.0313 kg/ha) | Preemergence herbicidal rating IPOHE ([9]; rate 0.0156 kg/ha) | Preemergence herbicidal rating IPOHE ([9]; rate 0.0313 kg/ha) | Preemergence herbicidal rating ECHCG ([10]; rate 0.0156 kg/ha) | Preemergence herbicidal rating ECHCG ([10]; rate 0.0313 kg/ha) | Preemergence herbicidal rating ECHCG ([10]; rate 0.0625 kg/ha) | CYPSE herbicidal effect rating ([12]; 0.0313 kg/ha) | CYPSE herbicidal effect rating ([12]; 0.0625 kg/ha) | CYPSE herbicidal effect rating ([12]; 0.1250 kg/ha) | CYPSE herbicidal effect rating ([12]; 0.2500 kg/ha)
2.0: Preemergence herbicidal rating ABUTH ([6]; rate 0.0156 kg/ha) | Preemergence herbicidal rating AMBEL ([7]; rate 0.0313 kg/ha) | Preemergence herbicidal rating CASOB ([8]; rate 0.2500 kg/ha) | Preemergence herbicidal rating ECHCG ([10]; rate 0.1250 kg/ha)
1.0: Preemergence herbicidal rating AMBEL ([7]; rate 0.0156 kg/ha) | Preemergence herbicidal rating CASOB ([8]; rate 0.0625 kg/ha) | Preemergence herbicidal rating CASOB ([8]; rate 0.1250 kg/ha) | Preemergence herbicidal rating IPOHE ([9]; rate 0.0625 kg/ha)
6.0: ECHORC herbicidal effect rating ([11]; 0.1250 kg/ha) | Herbicidal rating ECHORC ([13]; Rate 0.1250 kg/ha) | Herbicidal rating CYPIR ([14]; Rate 0.0313 kg/ha)
